Assay results published in article PMC4447598 (Annals of neurology, 2015).
Where “and” joins values, the source holds several entries; their conditions need not be identical. Equal entries are not always repeated.

Experiments:
[1] = target: Pyk2 (Homo sapiens, UniProt Q14289); test: LanthaScreen Europium Kinase Binding Assay
[2] = test system: Pyk2; test: Acute brain slice assay, p-Pyk2; assay type: cell-based, mouse
[3] = test system: NR2B subunit of NMDA-type Glu receptors; test: Acute brain slice assay, pY-1472 NR2B immunoblot relative to total NR2B; assay type: cell-based, mouse
[4] = AZD0530 pharmacokinetics in mice; assay type: in vivo, mouse
[5] = test system: Pyk2; test: Activated pPyk2 levels in brain of APP/PS1 and WT mice; assay type: in vivo, mouse
[6] = test system: APP/PS1 transgenic mice; test: Morris water maze; assay type: in vivo, mouse
[7] = test system: APP/PS1 transgenic mice; test: Novel object recognition; assay type: in vivo, mouse; settings: 5 mg/kg/d, 6 weeks treatment
[8] = test system: APP/Aβ; test: APP metabolism and Aβ accumulation in brain of treated mice; assay type: in vivo, mouse; settings: 5 mg/kg/d
[9] = test system: APP/PS1 transgenic mice; test: Glial reaction in cortex; assay type: in vivo, mouse; settings: 5 mg/kg/d, 7 weeks
[10] = test system: APP/PS1 transgenic mice; test: Synapse density in dentate gyrus; assay type: in vivo, mouse; settings: 5 mg/kg/d, 7 weeks
[11] = test system: Tau; test: Tau biochemistry and histology in 3xTg-AD mice; assay type: in vivo, mouse
[12] = Chronic; assay type: in vivo, beagle dogs
[13] = ref [27]; cited from earlier work
[14] = APP/PS1 mice, 5 mg/kg/d, 1-2 weeks treatment
[15] = APP/PS1 mice, 5 mg/kg/d, 3-5 weeks treatment
[16] = RIPA extracts of TBS-insoluble material, 5 mg/kg/d 40 days
[17] = RIPA-insoluble fractions, 5 mg/kg/d 40 days

Chain of Pyk2 (Homo sapiens, UniProt Q14289) (Q14289 whole entry): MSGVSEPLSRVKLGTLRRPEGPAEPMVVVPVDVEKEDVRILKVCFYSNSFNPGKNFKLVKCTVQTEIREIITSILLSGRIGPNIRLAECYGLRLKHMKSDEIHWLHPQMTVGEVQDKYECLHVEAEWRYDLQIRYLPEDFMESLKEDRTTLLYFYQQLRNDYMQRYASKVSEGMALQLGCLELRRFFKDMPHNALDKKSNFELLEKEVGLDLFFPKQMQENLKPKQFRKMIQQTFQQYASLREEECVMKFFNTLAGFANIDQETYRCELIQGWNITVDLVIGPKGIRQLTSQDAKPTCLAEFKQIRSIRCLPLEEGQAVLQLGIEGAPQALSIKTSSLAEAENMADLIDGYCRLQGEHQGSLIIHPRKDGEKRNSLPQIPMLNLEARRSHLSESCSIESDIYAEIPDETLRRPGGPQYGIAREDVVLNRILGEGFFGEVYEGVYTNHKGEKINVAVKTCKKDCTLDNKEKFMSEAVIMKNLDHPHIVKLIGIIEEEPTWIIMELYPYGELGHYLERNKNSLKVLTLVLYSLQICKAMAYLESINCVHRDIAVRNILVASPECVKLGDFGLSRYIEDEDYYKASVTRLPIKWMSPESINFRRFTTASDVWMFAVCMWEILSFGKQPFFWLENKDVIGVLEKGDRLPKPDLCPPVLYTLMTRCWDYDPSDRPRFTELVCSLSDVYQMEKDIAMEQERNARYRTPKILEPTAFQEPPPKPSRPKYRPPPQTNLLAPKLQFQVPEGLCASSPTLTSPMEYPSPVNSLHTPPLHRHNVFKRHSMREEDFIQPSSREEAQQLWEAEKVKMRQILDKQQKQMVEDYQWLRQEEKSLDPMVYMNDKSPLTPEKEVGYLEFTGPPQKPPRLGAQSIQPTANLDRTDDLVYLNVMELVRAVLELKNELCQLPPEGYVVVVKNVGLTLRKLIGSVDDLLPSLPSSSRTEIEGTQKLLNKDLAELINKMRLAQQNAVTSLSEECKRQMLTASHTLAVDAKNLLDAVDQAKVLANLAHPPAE

With `CN1CCN(CCOc2cc(OC3CCOCC3)c3c(Nc4c(Cl)ccc5c4OCO5)ncnc3c2)CC1` [AZD0530, N-(5-chloro-1,3-benzodioxol-4-yl)-7-[2-(4-methylpiperazin-1-yl)ethoxy]-5-(tetrahydro-2H-pyran-4-yloxy)quinazolin-4-amine] the IC50 [1] was over 250 µM, the Pyk2 substrate binding ([1]; AZD0530 at concentrations up to 100 μM) was “unaffected” and the “basal Pyk2 activation” value ([2]; brain slices without Aβo) was “suppresses”. For the same compound, the “Aβo stimulation of Pyk2 activation” value ([2]; brain slices, 1 μM Aβo 30 min) was “blocks”, the “basal phosphorylation of NR2B” value ([3]; brain slices without Aβo) was “suppresses” and the “Aβo-induced phosphorylation of NR2B” value ([3]; brain slices, 1 μM Aβo 30 min) was “full blocks”. For the same compound, the inhibition at 5 mg/kg/day ([4]; Mus musculus, po, read-out: expected inhibition of Fyn kinase activity in brain) was at least 50%, the apparent brain half-life ([4]; mouse, 5 mg/kg/d for 3 days) was 16 h and the peak brain level ([4]; mouse, 5 mg/kg/d oral b.i.d., 30-60 min after dosing, 5 mg/kg/day) was 27 ng/g and 50 nM. For the same compound, the “peak CSF level” value ([4]; mouse, 5 mg/kg/d, one pooled sample, 5 mg/kg/day) was 7 ng/ml and 13 nM, the “CSF level as % of brain level” value ([4]; mouse, 6 oral b.i.d. doses, 30-60 min after dosing) was “about 35%” and the concentration at 12 h ([4]; mouse, CSF, oral, 5 mg/kg/day, trough CSF range calculated from multiple brain samples, 5 mg/kg/d) was 3.1 ng/mL to 7.6 ng/mL and 5.8 nM to 14 nM. For the same compound, the half-life ([4]; mouse, brain, oral, 5 mg/kg/day, apparent brain half-life, 5 mg/kg/d for 3 days) was about 16 h, the “increase of p(Y402)Pyk2 in hippocampal CA1 and CA3 cell body layers (histology)” value ([5]; APP/PS1 mice, 5 mg/kg/d for 7 weeks) was “reversed by AZD0530 treatment” and the pPyk2 level ([5]; WT mice) was “does not significantly alter pPyk2”. The “activated pPyk2 level (immunoblot), hippocampus” value ([5]; aged APP/PS1 mice, 5 mg/kg/d) was “reduces activated pPyk2 level to that of WT mice exposed to vehicle”, the water maze performance ([6]; APP/PS1 mice, 2 mg/kg/d, 3-5 weeks treatment) was “fails to improve water maze performance” and the “impaired rate of acquisition during swims to a hidden platform” value [6, 14] was “no improvement”. The “memory recall during 60 sec probe trial” value [6, 14] was “no improvement”, the “latencies to the hidden platform (spatial learning)” value [6, 15] was “eliminates the pre-existing transgenic deficit” and the “probe trial, preference for target quadrant” value [6, 15] was “same strong preference for the target quadrant as do WT mice”. The “latencies to a hidden platform” value ([6]; WT mice, 5 mg/kg/d) was “not altered”, the “Novel Object Recognition performance” value [7] was “performance equal to the WT mice” and the APP/Aβ metabolism ([8]; 3xTg-AD mice, data not shown) was “no effect”. For the same compound, the “APP fragments, Aβ plaque and different Aβ species vs vehicle-treated transgenic mice” value ([8]; APP/PS1 mice, 7 weeks) was “no difference”, the “astrocytic reaction (GFAP)” value [9] was “no significant change” and the “extent of microglial induction (Iba1)” value [9] was “significantly reduced”. The “synapse density (PSD-95, SV2a puncta)” value ([10]; APP/PS1 transgenic mice) was “fully restores synaptic puncta to WT levels”, the “synapse density (PSD-95, SV2a puncta)” value ([10]; WT mice) was “does not alter synapse density” and the “human Tau transgene mRNA (qRT-PCR)” value ([11]; 3xTg-AD mice, 5 mg/kg/d, data not shown) was “not changed”. For the same compound, the “decrease of pTau pS396 vs control 3xTg” value [11, 16] was 53%, the “decrease of total Tau vs control 3xTg” value [11, 16] was 74% and the “decrease of insoluble human Tau” value [11, 17] was 56%. For the same compound, the “decrease of insoluble total Tau” value [11, 17] was 41%, the NOAEL at 273 days ([12]; both, beagle, dog, in vivo, po) was over 5 mg/kg/day and the “body weight, hematological and coagulation parameters vs vehicle” value ([12]; dog, 0.5, 2 or 5 mg/kg/d, 273 days) was “no statistically significant difference”. The tolerability ([12]; dog, 39 weeks oral gavage at 0.5, 2 and 5 mg/kg/day) was “tolerated at all dose levels tested”, the “abnormal measurement or pathology” value ([12]; dog, any group including 5 mg/kg/d, 273 days) was “No significantly abnormal measurement or evidence of pathology was detected” and the “half-life of the compound in humans” value [13] was “between one and two days”.
